What was measured:
Test in all cases: biochemical
[1] = molecular target: T1, panel of 374 wild-type kinases (Homo sapiens, UniProt Q96GX5); conditions: MASTL, read-out: % Enzyme Activity (relative to DMSO controls)
T1 construct: purchased Reaction Biology Corporation
T1 sequence (Q96GX5 1-879): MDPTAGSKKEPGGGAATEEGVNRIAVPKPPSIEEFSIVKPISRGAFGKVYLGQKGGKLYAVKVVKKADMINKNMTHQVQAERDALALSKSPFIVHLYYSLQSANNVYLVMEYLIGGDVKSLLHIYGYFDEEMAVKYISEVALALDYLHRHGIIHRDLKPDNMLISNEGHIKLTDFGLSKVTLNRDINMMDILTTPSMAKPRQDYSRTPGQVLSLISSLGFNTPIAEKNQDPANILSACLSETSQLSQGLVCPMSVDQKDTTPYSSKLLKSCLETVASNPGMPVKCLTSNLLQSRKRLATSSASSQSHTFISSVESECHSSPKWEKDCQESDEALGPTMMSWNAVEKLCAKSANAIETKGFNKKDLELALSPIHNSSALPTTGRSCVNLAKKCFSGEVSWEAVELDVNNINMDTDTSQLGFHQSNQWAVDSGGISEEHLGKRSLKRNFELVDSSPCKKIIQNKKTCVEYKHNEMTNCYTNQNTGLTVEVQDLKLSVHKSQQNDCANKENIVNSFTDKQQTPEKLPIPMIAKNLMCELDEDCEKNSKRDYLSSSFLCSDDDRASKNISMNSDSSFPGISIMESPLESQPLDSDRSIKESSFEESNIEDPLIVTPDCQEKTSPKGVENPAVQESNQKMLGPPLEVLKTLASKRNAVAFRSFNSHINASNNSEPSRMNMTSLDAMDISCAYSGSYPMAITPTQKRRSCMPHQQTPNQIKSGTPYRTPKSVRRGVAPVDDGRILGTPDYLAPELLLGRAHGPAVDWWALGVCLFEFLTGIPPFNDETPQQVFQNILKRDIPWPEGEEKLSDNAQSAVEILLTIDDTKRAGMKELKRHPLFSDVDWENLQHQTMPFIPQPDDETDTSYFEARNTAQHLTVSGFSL

[2] = molecular target: T2, panel of 374 wild-type kinases (Homo sapiens, UniProt Q00536); conditions: read-out: % Enzyme Activity (relative to DMSO controls), CDK16/cyclin Y (PCTAIRE)
T2 construct: purchased Reaction Biology Corporation
T2 sequence (Q00536 whole entry): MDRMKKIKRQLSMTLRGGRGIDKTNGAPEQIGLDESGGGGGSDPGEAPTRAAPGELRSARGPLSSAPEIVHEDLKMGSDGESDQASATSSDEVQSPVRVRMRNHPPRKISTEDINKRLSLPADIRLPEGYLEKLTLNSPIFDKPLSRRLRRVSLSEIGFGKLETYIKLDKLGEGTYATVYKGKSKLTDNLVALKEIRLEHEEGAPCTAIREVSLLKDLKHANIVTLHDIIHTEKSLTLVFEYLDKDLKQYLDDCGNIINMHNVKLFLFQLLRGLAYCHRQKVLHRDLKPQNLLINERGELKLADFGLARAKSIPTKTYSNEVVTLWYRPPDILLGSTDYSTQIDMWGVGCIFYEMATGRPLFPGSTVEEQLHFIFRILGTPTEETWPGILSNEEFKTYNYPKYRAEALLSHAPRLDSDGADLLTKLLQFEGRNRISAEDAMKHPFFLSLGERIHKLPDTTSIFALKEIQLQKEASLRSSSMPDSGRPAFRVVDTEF

[3] = molecular target: T3, panel of 374 wild-type kinases (Homo sapiens, UniProt Q96RG2); conditions: read-out: % Enzyme Activity (relative to DMSO controls), kinase PASK
T3 construct: purchased Reaction Biology Corporation
T3 sequence (Q96RG2 whole entry): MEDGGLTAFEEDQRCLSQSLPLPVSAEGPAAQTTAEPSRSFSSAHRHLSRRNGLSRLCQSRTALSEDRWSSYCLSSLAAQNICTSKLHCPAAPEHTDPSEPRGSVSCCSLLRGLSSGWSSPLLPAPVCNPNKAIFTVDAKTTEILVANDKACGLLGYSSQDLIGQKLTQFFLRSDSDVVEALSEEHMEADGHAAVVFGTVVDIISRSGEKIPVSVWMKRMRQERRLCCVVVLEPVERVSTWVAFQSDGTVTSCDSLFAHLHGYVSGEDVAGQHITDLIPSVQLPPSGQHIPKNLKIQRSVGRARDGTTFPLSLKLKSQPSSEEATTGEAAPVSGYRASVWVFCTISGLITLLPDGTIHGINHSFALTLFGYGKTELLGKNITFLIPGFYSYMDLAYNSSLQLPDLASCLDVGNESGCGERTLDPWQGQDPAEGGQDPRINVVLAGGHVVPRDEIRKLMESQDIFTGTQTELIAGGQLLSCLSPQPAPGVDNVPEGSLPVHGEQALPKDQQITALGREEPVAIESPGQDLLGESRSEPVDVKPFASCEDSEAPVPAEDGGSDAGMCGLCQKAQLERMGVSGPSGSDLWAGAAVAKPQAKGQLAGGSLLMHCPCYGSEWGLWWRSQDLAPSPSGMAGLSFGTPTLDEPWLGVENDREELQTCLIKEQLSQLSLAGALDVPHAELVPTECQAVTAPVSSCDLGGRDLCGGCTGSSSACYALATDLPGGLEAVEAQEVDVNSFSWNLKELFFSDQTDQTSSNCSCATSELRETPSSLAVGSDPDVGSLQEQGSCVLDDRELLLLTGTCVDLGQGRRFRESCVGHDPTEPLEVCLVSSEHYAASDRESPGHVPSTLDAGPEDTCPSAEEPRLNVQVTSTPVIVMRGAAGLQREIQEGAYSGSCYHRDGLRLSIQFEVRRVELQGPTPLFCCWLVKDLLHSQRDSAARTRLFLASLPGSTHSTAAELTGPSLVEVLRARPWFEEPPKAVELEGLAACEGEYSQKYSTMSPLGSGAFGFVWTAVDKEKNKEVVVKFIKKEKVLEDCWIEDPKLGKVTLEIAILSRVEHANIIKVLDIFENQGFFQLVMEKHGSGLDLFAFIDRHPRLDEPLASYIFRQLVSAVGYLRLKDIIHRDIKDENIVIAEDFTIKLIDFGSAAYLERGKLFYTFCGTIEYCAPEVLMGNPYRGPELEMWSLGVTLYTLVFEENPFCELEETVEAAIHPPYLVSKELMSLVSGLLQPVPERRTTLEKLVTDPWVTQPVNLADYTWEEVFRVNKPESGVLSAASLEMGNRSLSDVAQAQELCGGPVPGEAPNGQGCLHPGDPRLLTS

[4] = molecular target: T4, panel of 374 wild-type kinases (Homo sapiens, UniProt P46734); conditions: read-out: % Enzyme Activity (relative to DMSO controls), MEK3
T4 construct: purchased Reaction Biology Corporation
T4 sequence (P46734 1-347): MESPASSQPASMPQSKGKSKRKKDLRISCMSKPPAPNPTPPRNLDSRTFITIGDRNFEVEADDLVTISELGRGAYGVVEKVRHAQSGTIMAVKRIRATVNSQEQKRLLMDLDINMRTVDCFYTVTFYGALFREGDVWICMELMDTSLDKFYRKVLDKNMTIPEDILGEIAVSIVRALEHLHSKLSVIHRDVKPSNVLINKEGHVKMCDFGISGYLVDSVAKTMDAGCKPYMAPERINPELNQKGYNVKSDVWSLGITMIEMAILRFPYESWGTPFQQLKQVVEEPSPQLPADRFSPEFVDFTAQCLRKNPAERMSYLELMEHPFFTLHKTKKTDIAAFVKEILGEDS

[5] = molecular target: T5, panel of 374 wild-type kinases (Homo sapiens, UniProt O00141); conditions: read-out: % Enzyme Activity (relative to DMSO controls), kinase SGK1
T5 construct: purchased Reaction Biology Corporation
T5 sequence (O00141 1-431): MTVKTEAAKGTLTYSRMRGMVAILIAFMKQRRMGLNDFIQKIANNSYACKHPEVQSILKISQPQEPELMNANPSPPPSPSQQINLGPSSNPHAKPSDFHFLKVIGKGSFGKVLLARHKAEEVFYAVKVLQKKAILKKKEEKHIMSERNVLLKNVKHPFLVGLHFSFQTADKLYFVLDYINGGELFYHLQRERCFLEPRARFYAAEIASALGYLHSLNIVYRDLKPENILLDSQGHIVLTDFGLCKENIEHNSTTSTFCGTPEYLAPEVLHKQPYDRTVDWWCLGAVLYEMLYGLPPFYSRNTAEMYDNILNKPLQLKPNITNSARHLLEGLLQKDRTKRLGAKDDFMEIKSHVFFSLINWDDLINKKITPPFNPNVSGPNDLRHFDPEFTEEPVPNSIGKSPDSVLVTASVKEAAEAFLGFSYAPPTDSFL

[6] = molecular target: T6, panel of 374 wild-type kinases (Homo sapiens, UniProt Q13470); conditions: read-out: % Enzyme Activity (relative to DMSO controls), kinase TNK1
T6 construct: purchased Reaction Biology Corporation
T6 sequence (Q13470 1-666): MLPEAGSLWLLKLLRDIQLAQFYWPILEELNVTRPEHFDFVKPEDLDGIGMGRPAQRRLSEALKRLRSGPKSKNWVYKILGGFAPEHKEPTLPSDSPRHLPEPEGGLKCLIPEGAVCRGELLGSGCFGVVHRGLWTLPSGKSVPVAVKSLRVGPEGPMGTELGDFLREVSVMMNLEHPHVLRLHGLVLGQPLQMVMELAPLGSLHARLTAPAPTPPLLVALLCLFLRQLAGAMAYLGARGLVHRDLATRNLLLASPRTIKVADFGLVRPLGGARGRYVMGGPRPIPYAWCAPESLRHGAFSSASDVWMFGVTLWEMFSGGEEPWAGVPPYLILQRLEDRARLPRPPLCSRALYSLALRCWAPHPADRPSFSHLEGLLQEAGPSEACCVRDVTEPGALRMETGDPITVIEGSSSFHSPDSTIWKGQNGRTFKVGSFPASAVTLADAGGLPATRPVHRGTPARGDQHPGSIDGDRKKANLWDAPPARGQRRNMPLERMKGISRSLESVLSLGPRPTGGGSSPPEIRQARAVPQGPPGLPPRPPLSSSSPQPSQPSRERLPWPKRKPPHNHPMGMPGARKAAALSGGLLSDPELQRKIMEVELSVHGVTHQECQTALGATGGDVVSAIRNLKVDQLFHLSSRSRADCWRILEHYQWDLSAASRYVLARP

SMILES: Cc1sc(C(=O)NC2COC2)cc1-n1cc(NC(=O)Nc2c(F)cccc2Cl)cn1 [Compound 27, 4-(4-(3-(2-chloro-6-fluorophenyl)ureido)-1H-pyrazol-1-yl)-5-methyl-N-(oxetan-3-yl)thiophene-2-carboxamide]
- remaining activity at 10 µM ([1]; 10 uM): 110%
- remaining activity at 10 µM ([2]; 10 uM): 102%
- remaining activity at 10 µM ([3]; 10 uM): 96.1%
- remaining activity at 10 µM ([4]; 10 uM): 88.8%
- remaining activity at 10 µM ([5]; 10 uM): 115%
- remaining activity at 10 µM ([6]; 10 uM): 105%

SMILES: O=C(Nc1cnn(-c2csc(C(=O)NC3COC3)c2)c1)Nc1c(F)cccc1Cl [Compound 25, 4-(4-(3-(2-chloro-6-fluorophenyl)ureido)-1H-pyrazol-1-yl)-N-(oxetan-3-yl)thiophene-2-carboxamide]
- remaining activity at 5 µM [1]: 93.7%
- remaining activity at 5 µM [2]: 101%
- remaining activity at 5 µM [3]: 99.7%
- remaining activity at 5 µM [4]: 111%
- remaining activity at 5 µM [5]: 95.4%
- remaining activity at 5 µM [6]: 91.5%

SMILES: O=C(Nc1cnn(-c2csc(C(=O)NC3COC3)c2)c1)Nc1ccccc1Cl [Compound 17, 4-(4-(3-(2-chlorophenyl)ureido)-1H-pyrazol-1-yl)-N-(oxetan-3-yl)thiophene-2-carboxamide]
- remaining activity at 5 µM [1]: 96.7%
- remaining activity at 5 µM [2]: 94.8%
- remaining activity at 5 µM [3]: 96.3%
- remaining activity at 5 µM [4]: 104%
- remaining activity at 5 µM [5]: 93.7%
- remaining activity at 5 µM [6]: 100%
